Experimental data from patent US7465724B2, “Bis-pyrrolo[2,1-c][1,4]benzodiazepine-anthraquinone conjugates and a process for the preparation thereof” (Council of Scientific and Industrial Research, priority 2006, dated 2008).

How the values were obtained:
Assay type in all cases: cell-based, human
Details in all cases: 48 h continuous drug exposure; dose to inhibit cell growth by 50% vs untreated cell controls
[1] = system: SiHa; experiment: In vitro cytotoxicity, SRB assay, SiHa
Experimental: (§1) Cytotoxicity: Compounds Va-c have been evaluated for the primary anticancer activity in selected human cancer cell lines. For each compound, dose response curves against each cell line were measured at a minimum of five concentrations at 10 fold dilutions. A protocol of 48 h continuous drug exposure was used and a sulforhodamine B (SRB) protein assay was used to estimate cell viability or growth. The concentration causing 50% cell growth inhibition compared with the control has been calculated.

[2] = system: Colo205; experiment: In vitro cytotoxicity, SRB assay, Colo205
Experimental: as §1

[3] = system: PC3; experiment: In vitro cytotoxicity, SRB assay, PC3
Experimental: as §1

[4] = system: ZR-75-1; experiment: In vitro cytotoxicity, SRB assay, ZR-75-1
Experimental: as §1

[5] = system: A2780; experiment: In vitro cytotoxicity, SRB assay, A2780
Experimental: as §1

[6] = system: MCF7; experiment: In vitro cytotoxicity, SRB assay, MCF7
Experimental: as §1

[7] = system: Hop62; experiment: In vitro cytotoxicity, SRB assay, Hop62
Experimental: as §1

Row | SMILES | IC50 [1] [nM] | IC50 [2] [nM] | IC50 [3] [nM] | IC50 [4] [nM] | IC50 [5] [nM] | IC50 [6] [nM] | IC50 [7] [nM]
1 | COc1cc2c(cc1OCCCCCOc1ccc(OCCCCCOc3cc4c(cc3OC)C(=O)N3CCC[C@H]3C=N4)c3c1C(=O)c1ccccc1C3=O)N=C[C@@H]1CCCN1C2=O [Vc, 1,4-Bis-{5-[7-methoxy-8-oxy-(11aS)-1,2,3,11atetrahydro-5H-pyrrolo [2,1-c][1,4]benzodiazepin-5-one]pentyloxy}anthracene-9,10-dione] | 800 | < 1000 | 1000 | 1500 | 600 | 1200 | 1400
2 | COc1cc2c(cc1OCCCCOc1ccc(OCCCCOc3cc4c(cc3OC)C(=O)N3CCC[C@H]3C=N4)c3c1C(=O)c1ccccc1C3=O)N=C[C@@H]1CCCN1C2=O [Vb, 1,4-Bis-{4-[7-methoxy-8-oxy-(11aS)-1,2,3,11atetrahydro-5H-pyrrolo [2,1-c][1,4]benzodiazepin-5-one]butyloxy}anthracene-9,10-dione] | 9000 | 10000 | 7000 | – | 10000 | 9000 | –
3 | COc1cc2c(cc1OCCCOc1ccc(OCCCOc3cc4c(cc3OC)C(=O)N3CCC[C@H]3C=N4)c3c1C(=O)c1ccccc1C3=O)N=C[C@@H]1CCCN1C2=O [Va, 1,4-Bis-{3-[7-methoxy-8-oxy-(11aS)-1,2,3,11atetrahydro-5H-pyrrolo [2,1-c][1,4]-benzodiazepin-5-one]propyloxy}anthracene-9,10-dione] | 800 | < 1000 | 600 | 500 | 600 | 600 | < 1000
